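Step 1: Grow cells in 96-well plates. Step 2: Expose to compound for 48 hours at 5 concentrations. Step 3: Interpolate endpoints linearly; if unreached, use highest concentration. GI50 is the concentration that inhibits growth by half.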 Calls of active or inactive are those of the source. Cut-off read from the data, not from the text of the source: active = GI50 up to about 1.1 µM and inactive = higher.
Assays:
Experiment in all cases: inhibition of tumour cell growth, NCI panel, 48 h
DMS-273 = test system: DMS-273
HOP-92 = test system: HOP-92
SN12C = test system: SN12C
A498 = test system: A498
SK-MEL-28 = test system: SK-MEL-28
LOX IMVI = test system: LOX IMVI
NCI-H460 = test system: NCI-H460
RXF 393 = test system: RXF 393
CCRF-CEM = test system: CCRF-CEM
HOP-62 = test system: HOP-62
COLO 205 = test system: COLO 205
TK-10 = test system: TK-10
IGROV-1 = test system: IGROV-1
SNB-78 = test system: SNB-78
OVCAR-8 = test system: OVCAR-8
M14 = test system: M14
HCT-15 = test system: HCT-15

Nc1nc(-c2ccccc2)cc(-c2ccccc2O)n1
GI50 (DMS-273): 32 µM (inactive) | GI50 (HOP-92): > 100 µM (inactive) | GI50 (SN12C): 37.8 µM (inactive) | GI50 (A498): 40.7 µM (inactive) | GI50 (SK-MEL-28): 57.1 µM (inactive) | GI50 (LOX IMVI): 31.8 µM (inactive) | GI50 (NCI-H460): 36.2 µM (inactive) | GI50 (RXF 393): 27.3 µM (inactive) | GI50 (CCRF-CEM): 34 µM (inactive) | GI50 (HOP-62): 25.1 µM (inactive) | GI50 (COLO 205): 43.3 µM (inactive) | GI50 (TK-10): 46.7 µM (inactive) | GI50 (IGROV-1): 49.4 µM (inactive) | GI50 (SNB-78): 76.9 µM (inactive) | GI50 (OVCAR-8): 39.7 µM (inactive) | GI50 (M14): 81.1 µM (inactive)

CC1CCCP(=O)(c2ccccc2)CCC1 (stereo not given)
GI50 (DMS-273): > 100 µM (inactive) | GI50 (SN12C): > 100 µM (inactive) | GI50 (HCT-15): > 100 µM | GI50 (A498): > 100 µM (inactive) | GI50 (SK-MEL-28): > 100 µM (inactive) | GI50 (LOX IMVI): > 100 µM (inactive) | GI50 (NCI-H460): > 100 µM (inactive) | GI50 (RXF 393): > 100 µM (inactive) | GI50 (CCRF-CEM): > 100 µM (inactive) | GI50 (HOP-62): > 100 µM (inactive) | GI50 (COLO 205): > 100 µM (inactive) | GI50 (TK-10): > 100 µM (inactive) | GI50 (IGROV-1): > 100 µM (inactive) | GI50 (SNB-78): > 100 µM (inactive) | GI50 (OVCAR-8): > 100 µM (inactive) | GI50 (M14): > 100 µM (inactive)

O=C(Cc1nc2ccccc2s1)C(=O)Nc1cccc(Cl)c1
GI50 (DMS-273): > 100 µM (inactive) | GI50 (HOP-92): > 100 µM (inactive) | GI50 (SN12C): > 100 µM (inactive) | GI50 (HCT-15): > 100 µM | GI50 (A498): > 100 µM (inactive) | GI50 (SK-MEL-28): > 100 µM (inactive) | GI50 (LOX IMVI): > 100 µM (inactive) | GI50 (RXF 393): > 100 µM (inactive) | GI50 (CCRF-CEM): > 100 µM (inactive) | GI50 (HOP-62): > 100 µM (inactive) | GI50 (COLO 205): > 100 µM (inactive) | GI50 (TK-10): > 100 µM (inactive) | GI50 (IGROV-1): > 100 µM (inactive) | GI50 (SNB-78): > 100 µM (inactive) | GI50 (OVCAR-8): > 100 µM (inactive) | GI50 (M14): > 100 µM (inactive)

COc1cc(CCCC(O)COc2cccc3c2C2(O)CCCCCC32)cc(OC)c1 (stereo not given)
GI50 (DMS-273): 20.5 µM (inactive) | GI50 (HOP-92): 4.75 µM (inactive) | GI50 (SN12C): 17.2 µM (inactive) | GI50 (HCT-15): 17.6 µM | GI50 (A498): 19.9 µM (inactive) | GI50 (SK-MEL-28): 17 µM (inactive) | GI50 (NCI-H460): 17.6 µM (inactive) | GI50 (RXF 393): 24.8 µM (inactive) | GI50 (CCRF-CEM): 25.8 µM (inactive) | GI50 (HOP-62): 15 µM (inactive) | GI50 (COLO 205): 2.53 µM (inactive) | GI50 (TK-10): 14.1 µM (inactive) | GI50 (IGROV-1): 15.2 µM (inactive) | GI50 (SNB-78): 20.7 µM (inactive) | GI50 (OVCAR-8): 19.1 µM (inactive) | GI50 (M14): 17.5 µM (inactive)

N#CC1(Cc2ccccc2[N+](=O)[O-])c2ccccc2C2C(N1C(=O)c1ccccc1)C2(Cl)Cl (stereo not given)
GI50 (DMS-273): 28.2 µM (inactive) | GI50 (HOP-92): > 100 µM (inactive) | GI50 (SN12C): > 100 µM (inactive) | GI50 (HCT-15): > 100 µM | GI50 (A498): 78 µM (inactive) | GI50 (SK-MEL-28): > 100 µM (inactive) | GI50 (LOX IMVI): > 100 µM (inactive) | GI50 (NCI-H460): > 100 µM (inactive) | GI50 (RXF 393): > 100 µM (inactive) | GI50 (CCRF-CEM): > 100 µM (inactive) | GI50 (COLO 205): > 100 µM (inactive) | GI50 (TK-10): > 100 µM (inactive) | GI50 (IGROV-1): > 100 µM (inactive) | GI50 (SNB-78): 77.3 µM (inactive) | GI50 (OVCAR-8): > 100 µM (inactive) | GI50 (M14): > 100 µM (inactive)

COc1cccc(NC(=O)CC(=O)N2NC(C)C(/N=N/c3cccc(C(=O)O)c3)C2=O)c1 (stereo not given)
GI50 (DMS-273): > 100 µM (inactive) | GI50 (HOP-92): > 100 µM (inactive) | GI50 (SN12C): > 100 µM (inactive) | GI50 (A498): > 100 µM (inactive) | GI50 (SK-MEL-28): > 100 µM (inactive) | GI50 (LOX IMVI): > 100 µM (inactive) | GI50 (NCI-H460): > 100 µM (inactive) | GI50 (CCRF-CEM): > 100 µM (inactive) | GI50 (HOP-62): > 100 µM (inactive) | GI50 (COLO 205): > 100 µM (inactive) | GI50 (TK-10): > 100 µM (inactive) | GI50 (IGROV-1): > 100 µM (inactive) | GI50 (SNB-78): > 100 µM (inactive) | GI50 (OVCAR-8): > 100 µM (inactive) | GI50 (M14): > 100 µM (inactive)
